Laboratory results taken from publication PMC6695897, “Synthesis and In Vitro Screening of Novel Heterocyclic β-D-Gluco- and β-D-Galactoconjugates as Butyrylcholinesterase Inhibitors” (Molecules, 2019).
Where two headings read alike, the source gives them in different places.

Molecular target: T1, horse serum butyrylcholinesterase (BChE) (Equus caballus, UniProt P81908)
T1 construct: native enzyme from horse serum, lyophilised, commercial (Sigma-Aldrich), untagged
Experiment: Ellman assay, global fit to mixed inhibition model
Format: biochemical
Conditions: for Ki: read-out: Ki ± SEM (μM) ^1
From the text: Ellman assay, global fit to mixed inhibition model on horse serum butyrylcholinesterase (BChE)

T1 sequence (P81908 whole entry): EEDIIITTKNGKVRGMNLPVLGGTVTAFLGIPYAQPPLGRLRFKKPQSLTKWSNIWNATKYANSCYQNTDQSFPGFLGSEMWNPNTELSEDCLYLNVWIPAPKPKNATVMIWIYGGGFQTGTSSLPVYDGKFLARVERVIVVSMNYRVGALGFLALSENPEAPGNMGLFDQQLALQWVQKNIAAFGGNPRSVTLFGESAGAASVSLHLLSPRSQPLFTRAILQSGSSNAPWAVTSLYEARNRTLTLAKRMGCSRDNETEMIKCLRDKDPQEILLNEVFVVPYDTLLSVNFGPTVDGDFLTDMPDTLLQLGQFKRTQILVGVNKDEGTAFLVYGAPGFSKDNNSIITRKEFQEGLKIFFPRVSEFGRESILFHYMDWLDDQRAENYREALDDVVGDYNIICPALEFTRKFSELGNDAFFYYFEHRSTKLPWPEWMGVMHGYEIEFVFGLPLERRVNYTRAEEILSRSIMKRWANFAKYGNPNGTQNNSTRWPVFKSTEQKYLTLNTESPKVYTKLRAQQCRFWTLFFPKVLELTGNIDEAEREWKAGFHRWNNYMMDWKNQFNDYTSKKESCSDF

Row | Structure (SMILES) | Ki | also measured
1 | OC[C@H]1O[C@@H](OCCn2cnc3ccccc32)[C@H](O)[C@@H](O)[C@@H]1O [compound 5, N1-[2-(β-D-glucopyranozyloxy)ethyl]benzimidazole] |  | Ki (acetylthiocholine 0.04–1 mM, DTNB 0.3 mM, 0.1 M sodium phosphate pH 7.4, 25 °C, mixed): 16 ± 1.6 µM
2 | OC[C@H]1O[C@@H](OCC[n+]2cn(Cc3ccccc3)c3ccccc32)[C@H](O)[C@@H](O)[C@@H]1O [compound 7, N1-benzyl-N3-[2-(β-D-glucopyranozyloxy)ethyl]benzimidazolium bromide] | 52 ± 3 µM | 
3 | OC[C@H]1O[C@@H](OCCn2cnc3ccccc32)[C@H](O)[C@@H](O)[C@H]1O [compound 12, N1-[2-(β-D-galactopyranozyloxy)ethyl]benzimidazole] |  | Ki ± SEM (μM) ^1 (acetylthiocholine 0.04–1 mM, DTNB 0.3 mM, 0.1 M sodium phosphate pH 7.4, 25 °C, unreliable (extrapolated beyond tested 15–170 μM)): 782 ± 306 µM
4 | OC[C@H]1O[C@@H](OCC[n+]2cn(Cc3ccccc3)c3ccccc32)[C@H](O)[C@@H](O)[C@H]1O [compound 14, N1-benzyl-N3-[2-(β-D-galactopyranozyloxy)ethyl]benzimidazolium bromide] | 26 ± 2.7 µM | 
